Laboratory results published in US20230116972A1, “CD38 MODULATORS AND METHODS OF USE THEREOF” (Cytokinetics, Inc., priority 2021, published 2023).
Like-named read-outs stand apart in the source and are kept apart here.

Experiments:
Type in all cases: in vitro ADME
[1] = biological target: T1, CYP1A2 (Homo sapiens, UniProt P05177); experiment: direct inhibition of CYP450 in human liver microsomes
T1 construct: from tissue; host or cells: human liver microsomes (pooled in the time-dependent assay)
T1 sequence (P05177 1-516): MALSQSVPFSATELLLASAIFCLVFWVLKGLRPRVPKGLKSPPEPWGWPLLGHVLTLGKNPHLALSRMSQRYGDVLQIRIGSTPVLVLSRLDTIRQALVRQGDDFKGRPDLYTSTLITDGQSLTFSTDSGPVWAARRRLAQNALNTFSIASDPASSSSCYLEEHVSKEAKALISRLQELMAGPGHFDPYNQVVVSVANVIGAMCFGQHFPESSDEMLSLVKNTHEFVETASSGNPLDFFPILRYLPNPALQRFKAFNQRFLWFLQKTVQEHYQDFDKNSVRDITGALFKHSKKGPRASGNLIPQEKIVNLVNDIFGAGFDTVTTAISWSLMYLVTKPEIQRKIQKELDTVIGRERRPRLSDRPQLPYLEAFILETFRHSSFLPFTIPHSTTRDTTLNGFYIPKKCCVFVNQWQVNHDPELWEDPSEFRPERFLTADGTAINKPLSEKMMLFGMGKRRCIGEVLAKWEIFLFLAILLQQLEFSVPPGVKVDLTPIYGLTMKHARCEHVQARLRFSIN
Method: (§1) Direct inhibition: […] A Perspective of the Pharmaceutical Research and Manufacturers of America”, Drug Metabolism and Disposition, 37 (7): 1355, 2009). For 3A4, the % activity was measured using both midazolam and testosterone as probes. Each compound at 3, 10, and 50 μM was incubated with HLM, NADPH and CYP isoenzyme specific probe substrates at 37° C. Inhibition of the probe substrate metabolism was quantified using LC/MS/MS. […] Known chemical inhibitors specific for the individual CYP isoenzymes were evaluated in parallel as positive controls and these compounds produced CYP inhibition consistent with published results (Walsky & Obach RS. “Validated assays for human cytochrome P450 activities”. Drug Metab Dispos. 32(6):647-60, 2004). Note that, in Tables 6 and 7, the “Compound No” corresponds to the compound numbers in Table 1.

[2] = biological target: T2, CYP2B6 (Homo sapiens, UniProt P20813); experiment: as above; details: for activity at 3 µM / activity at 10 µM / activity at 50 µM: % of non-inhibited control, read-out: CYP2B6 T0 % activity; for IC50: estimated from 3, 10, 50 uM, read-out: CYP2B6 T0 estimated IC50
T2 construct: from tissue; host or cells: human liver microsomes (pooled in the time-dependent assay)
T2 sequence (P20813 1-491): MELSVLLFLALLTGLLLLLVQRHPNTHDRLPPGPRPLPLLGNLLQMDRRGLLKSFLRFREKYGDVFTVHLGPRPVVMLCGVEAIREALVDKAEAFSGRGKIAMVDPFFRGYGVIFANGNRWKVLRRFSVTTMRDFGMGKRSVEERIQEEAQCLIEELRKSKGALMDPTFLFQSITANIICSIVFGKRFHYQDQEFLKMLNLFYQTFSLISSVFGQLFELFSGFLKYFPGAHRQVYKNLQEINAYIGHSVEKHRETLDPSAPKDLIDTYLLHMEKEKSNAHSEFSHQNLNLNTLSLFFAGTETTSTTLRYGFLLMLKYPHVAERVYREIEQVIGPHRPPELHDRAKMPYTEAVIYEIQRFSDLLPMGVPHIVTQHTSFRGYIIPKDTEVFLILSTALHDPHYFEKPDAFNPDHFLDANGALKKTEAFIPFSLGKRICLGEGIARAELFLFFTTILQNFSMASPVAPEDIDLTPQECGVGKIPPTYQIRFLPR
Method: as §1

[3] = biological target: T3, CYP2C19 (Homo sapiens, UniProt P33261); experiment: as above; details: for activity at 3 µM / activity at 10 µM / activity at 50 µM: % of non-inhibited control, read-out: CYP2C19 T0 % activity; for IC50: estimated from 3, 10, 50 uM, read-out: CYP2C19 T0 estimated IC50
T3 construct: from tissue; host or cells: human liver microsomes (pooled in the time-dependent assay)
Method: as §1

[4] = biological target: T4, CYP2C9 (Homo sapiens, UniProt P11712); experiment: as above; details: for activity at 3 µM / activity at 10 µM / activity at 50 µM: % of non-inhibited control, read-out: CYP2C9 T0 % activity; for IC50: estimated from 3, 10, 50 uM, read-out: CYP2C9 T0 estimated IC50
T4 construct: from tissue; host or cells: human liver microsomes (pooled in the time-dependent assay)
Method: as §1

[5] = biological target: T5, CYP2D6 (Homo sapiens, UniProt P10635); experiment: as above; details: for activity at 3 µM / activity at 10 µM / activity at 50 µM: % of non-inhibited control, read-out: CYP2D6 T0 % activity; for IC50: estimated from 3, 10, 50 uM, read-out: CYP2D6 T0 estimated IC50
T5 construct: from tissue; host or cells: human liver microsomes (pooled in the time-dependent assay)
Method: as §1

[6] = biological target: T6, CYP3A4 (Homo sapiens, UniProt P08684); experiment: direct inhibition of CYP450 in human liver microsomes (midazolam and testosterone probes)
T6 construct: from tissue; host or cells: human liver microsomes (pooled in the time-dependent assay)
Method: as §1

[7] = midazolam probe, read-out: CYP3A4-M T0 % activity
[8] = testosterone probe, read-out: CYP3A4-T T0 % activity
[9] = midazolam probe, read-out: CYP3A4-M T0 estimated IC50
[10] = testosterone probe, read-out: CYP3A4-T T0 estimated IC50

T4 sequence (P11712 whole entry): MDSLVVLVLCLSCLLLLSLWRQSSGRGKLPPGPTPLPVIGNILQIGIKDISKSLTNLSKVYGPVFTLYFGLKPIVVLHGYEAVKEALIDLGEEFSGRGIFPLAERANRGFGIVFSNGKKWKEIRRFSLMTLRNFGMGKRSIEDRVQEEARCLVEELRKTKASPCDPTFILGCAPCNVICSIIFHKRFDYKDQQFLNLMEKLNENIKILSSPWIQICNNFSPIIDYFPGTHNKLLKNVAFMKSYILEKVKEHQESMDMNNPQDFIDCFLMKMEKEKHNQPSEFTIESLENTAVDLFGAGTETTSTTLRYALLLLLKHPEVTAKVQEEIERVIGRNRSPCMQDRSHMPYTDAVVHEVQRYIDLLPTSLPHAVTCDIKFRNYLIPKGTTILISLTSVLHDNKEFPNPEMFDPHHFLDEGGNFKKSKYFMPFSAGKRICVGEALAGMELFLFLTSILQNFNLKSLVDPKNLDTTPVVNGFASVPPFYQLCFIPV
T5 sequence (P10635 whole entry): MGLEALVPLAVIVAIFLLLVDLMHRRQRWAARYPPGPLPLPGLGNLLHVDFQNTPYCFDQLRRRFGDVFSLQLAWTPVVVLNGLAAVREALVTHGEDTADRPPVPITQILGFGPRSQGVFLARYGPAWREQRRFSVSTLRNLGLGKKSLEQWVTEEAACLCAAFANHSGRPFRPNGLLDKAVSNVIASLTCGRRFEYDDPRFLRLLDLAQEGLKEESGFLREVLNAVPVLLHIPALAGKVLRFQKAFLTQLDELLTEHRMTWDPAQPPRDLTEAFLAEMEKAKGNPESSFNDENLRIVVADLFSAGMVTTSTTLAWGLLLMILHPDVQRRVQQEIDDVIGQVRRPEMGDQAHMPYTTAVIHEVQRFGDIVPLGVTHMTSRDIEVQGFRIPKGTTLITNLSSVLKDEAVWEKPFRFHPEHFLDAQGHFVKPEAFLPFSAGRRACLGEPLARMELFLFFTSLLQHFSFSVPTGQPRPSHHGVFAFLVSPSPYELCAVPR
T3 sequence (P33261 whole entry): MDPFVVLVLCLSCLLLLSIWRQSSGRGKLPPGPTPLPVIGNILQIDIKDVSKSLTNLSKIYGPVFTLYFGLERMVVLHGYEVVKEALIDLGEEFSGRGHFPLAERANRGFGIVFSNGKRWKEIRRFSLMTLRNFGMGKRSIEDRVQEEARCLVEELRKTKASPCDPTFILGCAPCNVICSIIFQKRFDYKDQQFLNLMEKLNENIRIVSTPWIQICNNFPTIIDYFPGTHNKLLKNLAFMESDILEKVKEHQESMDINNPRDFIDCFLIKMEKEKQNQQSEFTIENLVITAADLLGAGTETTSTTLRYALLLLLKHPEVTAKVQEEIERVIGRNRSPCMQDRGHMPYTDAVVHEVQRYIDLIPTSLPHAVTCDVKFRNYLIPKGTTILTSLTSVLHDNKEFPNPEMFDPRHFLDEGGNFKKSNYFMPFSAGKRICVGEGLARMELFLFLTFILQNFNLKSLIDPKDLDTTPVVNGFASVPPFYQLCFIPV
T6 sequence (P08684 whole entry): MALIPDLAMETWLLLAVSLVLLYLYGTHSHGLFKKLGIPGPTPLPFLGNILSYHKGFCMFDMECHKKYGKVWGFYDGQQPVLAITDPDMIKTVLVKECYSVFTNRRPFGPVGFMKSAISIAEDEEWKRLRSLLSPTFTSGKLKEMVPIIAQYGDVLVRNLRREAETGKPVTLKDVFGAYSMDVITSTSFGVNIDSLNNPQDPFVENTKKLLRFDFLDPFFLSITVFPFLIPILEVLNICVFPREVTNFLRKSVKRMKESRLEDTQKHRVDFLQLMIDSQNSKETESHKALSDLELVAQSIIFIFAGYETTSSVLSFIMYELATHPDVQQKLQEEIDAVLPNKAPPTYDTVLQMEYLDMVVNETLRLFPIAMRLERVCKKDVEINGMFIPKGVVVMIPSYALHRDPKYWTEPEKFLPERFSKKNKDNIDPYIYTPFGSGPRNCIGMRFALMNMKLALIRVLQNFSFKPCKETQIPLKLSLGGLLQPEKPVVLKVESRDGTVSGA

Compound | activity at 3 µM [2] [%] | activity at 10 µM [2] [%] | activity at 50 µM [2] [%] | IC50 [2] [µM] | activity at 3 µM [3] [%] | activity at 10 µM [3] [%] | activity at 50 µM [3] [%] | IC50 [3] [µM] | activity at 3 µM [4] [%] | activity at 10 µM [4] [%] | activity at 50 µM [4] [%] | IC50 [4] [µM] | activity at 3 µM [5] [%] | activity at 10 µM [5] [%] | activity at 50 µM [5] [%] | IC50 [5] [µM] | activity at 3 µM [6, 7] [%] | activity at 3 µM [6, 8] [%] | activity at 10 µM [6, 7] [%] | activity at 10 µM [6, 8] [%] | further results
[2H]c1nc([2H])n(-c2nc(C)cc(C(=O)N[C@H]3CC[C@H](OCCOC)CC3)n2)c1[2H] [Comparator Compound A, reference compound] | 103 | 98 | 57 | > 50 | 77 | 49 | 17 | ~10 | 88 | 64 | 24 | < 50 | 95 | 82 | 42 | < 50 | 98 | 100 | 99 | 97 | activity at 3 µM ([1]; 3 uM, human liver microsomes, % of non-inhibited control, read-out: CYP1A2 T0 % activity): 98%; activity at 10 µM ([1]; 10 uM, human liver microsomes, % of non-inhibited control, read-out: CYP1A2 T0 % activity): 98%; activity at 50 µM ([1]; 50 uM, human liver microsomes, % of non-inhibited control, read-out: CYP1A2 T0 % activity): 92%; IC50 ([1]; human liver microsomes, estimated from 3, 10, 50 uM, read-out: CYP1A2 T0 estimated IC50): > 50 µM; activity at 50 µM [6, 7]: 91%; activity at 50 µM [6, 8]: 103%; IC50 [6, 9]: > 50 µM; IC50 [6, 10]: > 50 µM
CO[C@H]1CC[C@H](NC(=O)c2nccc(-n3ccnc3)n2)CC1 [Compound 145, 4-(1H-Imidazol-1-yl)-N-((1r,4r)-4-methoxycyclohexyl)pyrimidine-2-carboxamide] | 101 | 98 | 99 | > 50 | 92 | 93 | 89 | > 50 | 97 | 99 | 96 | > 50 | 93 | 73 | 47 | < 50 | 99 | 96 | 89 | 98 | IC50 [1]: > 50 µM; activity at 3 µM ([1]; human, microsomes): 94%; activity at 10 µM ([1]; human, microsomes): 92%; activity at 50 µM ([1]; human, microsomes): 79%; activity at 50 µM [6, 7]: 75%; activity at 50 µM [6, 8]: 95%; IC50 [6, 9]: > 50 µM; IC50 [6, 10]: > 50 µM
